Patent US20200325116A1, “SOLID FORMS OF A PLASMA KALLIKREIN INHIBITOR AND SALTS THEREOF” (KALVISTA PHARMACEUTICALS LIMITED, priority 2017, published 2020)
Values belong to the compound of their own block, whether it stands above or below them.

Assays:
[1] = tested on: LPS-induced disseminated intravascular coagulation; conditions: cited from earlier work
postoperative bleeding = conditions: in vivo; cited from earlier work
[2] = Pharmacokinetics after a single oral dose in rats; format: in vivo; conditions: male, Sprague-Dawley, rat, 10% DMSO/10% cremophor/80% SWFI, plasma
Method: Pharmacokinetic studies of the compounds in Table 4 were performed to assess the pharmacokinetics following a single oral dose in male Sprague-Dawley rats. […] Following dosing, blood samples were collected over a period of […]. Sample times were 5, 15 and 30 minutes then 1, 2, 4, 6, 8 and 12 hours. Following collection, blood samples were centrifuged and the plasma fraction analysed for concentration of test compound by LCMS.

Human Factor XIIa = target: T1, Human Factor XIIa (Homo sapiens, UniProt P00748); experiment: Determination of the IC50 for FXIIa; format: biochemical; conditions: 25° C., substrate H-DPro-Phe-Arg-AFC
T1 construct: purchased Enzyme Research Laboratories
Method: Factor XIIa inhibitory activity in vitro was determined using standard published methods (see e.g. Shori et al., Biochem. Pharmacol., 1992, 43, 1209; Baeriswyl et al., ACS Chem. Biol., 2015, 10 (8) 1861; Bouckaert et al., European Journal of Medicinal Chemistry 110 (2016) 181). Human Factor XIIa (Enzyme Research Laboratories) was incubated at 25° C. with the fluorogenic substrate H-DPro-Phe-Arg-AFC and various concentrations of the test compound. Residual enzyme activity (initial rate of reaction) was determined by measuring the […] and the IC50 value for the test compound was determined.

Human KLK1 = target: T2, Human KLK1 (Homo sapiens, UniProt P06870); experiment: Determination of the IC50 for KLK1; format: biochemical; conditions: 25° C., substrate H-DVal-Leu-Arg-AFC
T2 construct: purchased Callbiochem
Method: KLK1 inhibitory activity in vitro was determined using standard published methods (see e.g. Johansen et al., Int. J. Tiss. Reac. 1986, 8, 185; Shori et al., Biochem. Pharmacol., 1992, 43, 1209; Stürzebecher et al., Biol. Chem. Hoppe-Seyler, 1992, 373, 1025). Human KLK1 (Callbiochem) was incubated at 25° C. with the fluorogenic substrate H-DVal-Leu-Arg-AFC and various concentrations of the test compound. Residual enzyme activity (initial rate of reaction) was determined by measuring the change in optical absorbance at 410 nm and the IC50 value for the test compound was determined.

Human FXIa = target: T3, Human FXIa (Homo sapiens, UniProt P03951); experiment: Determination of the % inhibition / IC50 for FXIa; format: biochemical; conditions: 25° C., substrate Z-Gly-Pro-Arg-AFC
T3 construct: purchased Enzyme Research Laboratories
Method: Residual enzyme activity (initial rate of reaction) was determined by measuring the change in optical absorbance at 410 nm and the IC50 value for the test compound was determined.

blood = conditions: contacting blood with the substance; cited from earlier work
[3] = tested on: intrinsic pathway of coagulation; conditions: in vitro; cited from earlier work
rats = conditions: systemic administration; cited from earlier work
Caco-2 monolayers = experiment: In vitro permeability, Caco-2 model for oral absorption; format: in vitro ADME
Method: (§1) In vitro permeability was determined using the Caco-2 model for oral absorption. The methodology was adapted from standard published methods (Wang Z, Hop C. E., Leung K. H. and Pang J. (2000) J Mass Spectrom 35(1); 71-76). […] For the assay, 50 μM test compound is added to the apical side of the inserts and incubated for 1 hour at 37° C. on a shaking platform (120 rpm). Apical to basolateral transport was determined by measuring the test article in both compartments by LCMS following the 1 hour incubation. The integrity of the Caco-2 monolayers was confirmed by two methods, (i) comparison of pre- and post-experiment transepithelial electrical resistance (TEER) and, (ii) assessment of Lucifer Yellow flux.

[4] = as above; format: in vitro ADME; conditions: human, Caco-2; 50 μM, apical to basolateral, 1 hour at 37° C.
Method: as §1

trypsin = experiment: Enzyme selectivity, trypsin; format: biochemical, human; conditions: substrate at Km concentration
Method: Human serine protease enzymes plasmin, thrombin and trypsin were assayed for enzymatic activity using an appropriate fluorogenic substrate. Protease activity was measured by monitoring the accumulation of liberated fluorescence from the substrate over 5 minutes. The linear rate of fluorescence increase per minute was expressed as percentage (%) activity. The Km for the cleavage of each substrate was determined by standard transformation of the Michaelis-Menten equation.

T1 sequence (P00748 373-615 limits assumed, other chains not shown): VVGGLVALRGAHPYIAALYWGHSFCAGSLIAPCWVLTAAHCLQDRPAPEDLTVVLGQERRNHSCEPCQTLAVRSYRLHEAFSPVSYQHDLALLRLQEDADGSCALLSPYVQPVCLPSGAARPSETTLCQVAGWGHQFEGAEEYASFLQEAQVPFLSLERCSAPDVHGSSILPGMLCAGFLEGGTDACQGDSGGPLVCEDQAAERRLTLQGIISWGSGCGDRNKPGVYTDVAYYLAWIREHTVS
T2 sequence (P06870 25-262): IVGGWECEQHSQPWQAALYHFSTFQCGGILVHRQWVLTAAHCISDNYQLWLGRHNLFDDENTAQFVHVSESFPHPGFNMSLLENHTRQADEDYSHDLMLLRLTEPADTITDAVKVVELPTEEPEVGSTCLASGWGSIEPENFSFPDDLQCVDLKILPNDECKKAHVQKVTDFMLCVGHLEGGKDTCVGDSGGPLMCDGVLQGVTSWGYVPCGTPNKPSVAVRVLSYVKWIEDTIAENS
T3 sequence (P03951 388-625 limits assumed): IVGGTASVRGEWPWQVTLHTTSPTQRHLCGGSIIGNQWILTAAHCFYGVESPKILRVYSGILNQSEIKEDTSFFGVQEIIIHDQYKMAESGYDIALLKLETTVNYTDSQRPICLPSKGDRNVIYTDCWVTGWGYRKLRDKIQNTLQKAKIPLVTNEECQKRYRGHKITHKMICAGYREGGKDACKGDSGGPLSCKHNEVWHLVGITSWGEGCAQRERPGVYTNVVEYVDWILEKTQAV
T3 sequence (P03951 19-387 partner limits assumed): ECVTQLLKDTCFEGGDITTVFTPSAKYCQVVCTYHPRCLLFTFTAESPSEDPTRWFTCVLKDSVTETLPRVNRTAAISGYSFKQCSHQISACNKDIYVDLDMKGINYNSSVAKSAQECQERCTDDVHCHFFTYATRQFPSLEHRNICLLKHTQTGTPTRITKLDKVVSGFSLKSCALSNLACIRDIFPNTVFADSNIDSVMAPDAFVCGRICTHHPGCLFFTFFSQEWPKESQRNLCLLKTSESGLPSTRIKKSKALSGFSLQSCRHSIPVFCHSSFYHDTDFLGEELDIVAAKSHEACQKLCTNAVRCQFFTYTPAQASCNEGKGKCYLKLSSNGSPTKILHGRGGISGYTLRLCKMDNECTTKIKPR

Compound: Cl.NCC1CCC(C(=O)N[C@@H](Cc2ccccc2)C(=O)Nc2ccc(CC(=O)O)cc2)CC1 (stereo partly drawn) [PKSI-527]
decrease in platelet count and fibrinogen level, increase in FDP level [1]: significantly suppressed

Compound: aprotinin
postoperative bleeding (postoperative bleeding): decrease

Cmax ([2]; po 10.5 mg/kg): 1530 ng/mL
Tmax ([2]; po 10.5 mg/kg): 3 h
IC50 (Human Factor XIIa): > 40 µM
IC50 (Human KLK1): > 40 µM
IC50 (Human FXIa): > 40 µM
Compound: COCc1nn(Cc2ccc(Cn3ccccc3=O)cc2)cc1C(=O)NCc1nccc(OC)c1F [Example 41 of WO2016/083820, N-[(3-fluoro-4-methoxypyridin-2-yl)methyl]-3-(methoxymethyl)-1-({4-[(2-oxopyridin-1-yl)methyl]phenyl}methyl)pyrazole-4-carboxamide]

Compound: Ecallantide
activated clotting time (ACT) (blood): increase
contact activated induced coagulation [3]: delay

Compound: N=C(N)c1ccc(CNC(=O)c2cnn(Cc3ccccc3)c2)cc1 [ASP-440]
hematoma expansion (rats): reduced

Compound: COc1ccnc(CNC(=O)c2cn(Cc3ccc(Cn4ccccc4=O)cc3)nc2C(F)(F)F)c1F [Compound of Formula A, N-[(3-fluoro-4-methoxypyridin-2-yl)methyl]-1-({4-[(2-oxopyridin-1-yl)methyl]phenyl}methyl)-3-(trifluoromethyl)pyrazole-4-carboxamide]
pharmacokinetic properties, in particular in vitro permeability (in words) (Caco-2 monolayers): surprisingly good
Papp A→B at 1 h, 50 μM [4]: 17 ×10⁻⁶ cm/s
Cmax ([2]; po 2.2 mg/kg): 1800 ng/mL
Tmax ([2]; po 2.2 mg/kg): 0.5 h
IC50 (trypsin): > 40 µM
